ChEMBL document CHEMBL4184257, “Design, synthesis and antibacterial evaluation of honokiol derivatives” (2018)
Converted amounts (≈) assume the structure as drawn. The source made the active and inactive calls. The calls are words filed in the database; no cut-off is given here.

Key:
Staphylococcus aureus [1] = test: Antibacterial activity against Staphylococcus aureus ATCC 25923 incubated at 37 degC for 20 hrs by standard broth microdilution method; type: functional; settings: ATCC 25923, 20 h
Escherichia coli = test: Antibacterial activity against Escherichia coli ATCC 25922 incubated at 37 degC for 20 hrs by standard broth microdilution method; type: functional; settings: ATCC 25922, 20 h
Staphylococcus aureus [2] = test: Antibacterial activity against Staphylococcus aureus ATCC 6538 incubated at 37 degC for 20 hrs by agar dilution method; type: functional; settings: ATCC 6538, 20 h
[3] = test system: Staphylococcus epidermidis; test: Antibacterial activity against Staphylococcus albus AS1.3374 incubated at 37 degC for 20 hrs by agar dilution method; type: functional; settings: AS1.3374, 20 h
Enterococcus faecalis [4] = test: Antibacterial activity against Enterococcus faecalis ATCC 33186 incubated at 37 degC for 20 hrs by agar dilution method; type: functional; settings: ATCC 33186, 20 h
Klebsiella pneumoniae [5] = test: Antibacterial activity against Klebsiella pneumoniae CMCC 46117 incubated at 37 degC for 20 hrs by agar dilution method; type: functional; settings: CMCC 46117, 20 h
Staphylococcus aureus [6] = test: Antibacterial activity against Staphylococcus aureus ATCC 43300 incubated at 37 degC for 20 hrs by agar dilution method; type: functional; settings: ATCC 43300, 20 h
[7] = test system: Staphylococcus epidermidis; test: Antibacterial activity against Staphylococcus epidermidis ATCC 12228 incubated at 37 degC for 20 hrs by agar dilution method; type: functional; settings: ATCC 12228, 20 h
Streptococcus pyogenes = test: Antibacterial activity against Streptococcus pyogenes ATCC 19615 incubated at 37 degC for 20 hrs by agar dilution method; type: functional; settings: ATCC 19615, 20 h
Streptococcus mutans = test: Antibacterial activity against Streptococcus mutans; type: functional
Pseudomonas aeruginosa [8] = test: Antibacterial activity against Pseudomonas aeruginosa ATCC 27853 incubated at 37 degC for 20 hrs by agar dilution method; type: functional; settings: ATCC 27853, 20 h
Staphylococcus aureus [9] = test: Antibacterial activity against Staphylococcus aureus ATCC 33591 incubated at 37 degC for 20 hrs by agar dilution method; type: functional; settings: ATCC 33591, 20 h
Staphylococcus aureus [10] = test: Antibacterial activity against Staphylococcus aureus CMCC 26003 incubated at 37 degC for 20 hrs by agar dilution method; type: functional; settings: CMCC 26003, 20 h
Klebsiella pneumoniae [11] = test: Antibacterial activity against Klebsiella pneumoniae ATCC 4352 incubated at 37 degC for 20 hrs by agar dilution method; type: functional; settings: ATCC 4352, 20 h
Pseudomonas aeruginosa [12] = test: Antibacterial activity against Pseudomonas aeruginosa ATCC 9027 incubated at 37 degC for 20 hrs by agar dilution method; type: functional; settings: ATCC 9027, 20 h
Candida albicans = test: Antimicrobial activity against Candida albicans; type: functional
Klebsiella pneumoniae [13] = test: Antibacterial activity against Klebsiella pneumoniae ATCC 700603 incubated at 37 degC for 20 hrs by agar dilution method; type: functional; settings: ATCC 700603, 20 h
Staphylococcus aureus [14] = test: Antibacterial activity against Staphylococcus aureus; type: functional
Enterococcus faecalis [15] = test: Antibacterial activity against Enterococcus faecalis ATCC 35667 incubated at 37 degC for 20 hrs by agar dilution method; type: functional; settings: ATCC 35667, 20 h
Staphylococcus aureus [16] = test: Antibacterial activity against Staphylococcus aureus ATCC 29213 incubated at 37 degC for 20 hrs by agar dilution method; type: functional; settings: ATCC 29213, 20 h
Pseudomonas aeruginosa [17] = test: Antibacterial activity against Pseudomonas aeruginosa CMCC 10104 incubated at 37 degC for 20 hrs by agar dilution method; type: functional; settings: CMCC 10104, 20 h
Staphylococcus aureus [18] = test: Bacteriostatic activity against Staphylococcus aureus ATCC 25923 assessed as bacterial load at 1 times MIC incubated for 24 hrs by time kill curve assay; type: functional
Staphylococcus aureus [19] = test: Bacteriostatic activity against Staphylococcus aureus ATCC 25923 at 1 times MIC incubated for 24 hrs by time kill curve assay; type: functional, organism-based
Staphylococcus aureus [20] = test: Induction of cell wall destruction in Staphylococcus aureus ATCC 25923 at 1 times MIC incubated for 0.5 hrs Gram staining based assay; type: functional, organism-based
Staphylococcus aureus [21] = test: Induction of cell wall destruction in Staphylococcus aureus ATCC 25923 at 4 times MIC incubated for 1 hr Gram staining based assay; type: functional, organism-based
Staphylococcus aureus [22] = test: Bactericidal activity against Staphylococcus aureus ATCC 25923 at 4 times MIC incubated for 24 hrs by time kill curve assay; type: functional, organism-based
Staphylococcus aureus [23] = test: Bactericidal activity against Staphylococcus aureus ATCC 25923 assessed as bacterial load at 4 times MIC measured within 2 hrs post dose by time kill curve assay; type: functional

C=CCc1cc(CO)c(O)c(-c2cc(CO)c(O)c(CC=C)c2)c1
MIC90 (Staphylococcus aureus [1]): 64 µg/mL (≈ 196 µM)
MIC90 (Escherichia coli): > 256 µg/mL

C=CCc1cc(CN2CCN(C(C)C)CC2)c(O)c(-c2ccc(O)c(CC=C)c2)c1
MIC90 (Staphylococcus aureus [1]): > 256 µg/mL
MIC90 (Escherichia coli): 128 µg/mL (≈ 315 µM)

C=CCc1ccc(O)c(-c2ccc(O)c(CC=C)c2)c1 [HONOKIOL]
MIC (Staphylococcus aureus [2]): 16 µg/mL (≈ 60.1 µM)
MIC [3]: 16 µg/mL (≈ 60.1 µM)
MIC (Enterococcus faecalis [4]): 32 µg/mL (≈ 120 µM)
MIC (Klebsiella pneumoniae [5]): 32 µg/mL (≈ 120 µM)
MIC (Staphylococcus aureus [6]): 16 µg/mL (≈ 60.1 µM)
MIC90 (Staphylococcus aureus [1]): 16 µg/mL (≈ 60.1 µM)
MIC [7]: 16 µg/mL (≈ 60.1 µM)
MIC (Streptococcus pyogenes): 8 µg/mL (≈ 30 µM)
MIC (Streptococcus mutans): 10 µg/mL (≈ 37.5 µM)
MIC (Pseudomonas aeruginosa [8]): > 256 µg/mL
MIC (Staphylococcus aureus [9]): 16 µg/mL (≈ 60.1 µM)
MIC (Staphylococcus aureus [10]): 16 µg/mL (≈ 60.1 µM)
MIC (Klebsiella pneumoniae [11]): 32 µg/mL (≈ 120 µM)
MIC (Escherichia coli): > 256 µg/mL
MIC90 (Escherichia coli): > 256 µg/mL
MIC (Pseudomonas aeruginosa [12]): > 256 µg/mL
MIC (Candida albicans): 32 µg/mL (≈ 120 µM)
MIC (Klebsiella pneumoniae [13]): > 256 µg/mL
MIC (Staphylococcus aureus [14]): 50 µg/mL (≈ 188 µM)
MIC (Enterococcus faecalis [15]): 32 µg/mL (≈ 120 µM)
MIC (Staphylococcus aureus [16]): 16 µg/mL (≈ 60.1 µM)
MIC (Pseudomonas aeruginosa [17]): > 256 µg/mL

C=CCc1cc(CN2CCCC(NC(=O)OC(C)(C)C)C2)c(O)c(-c2ccc(O)c(CC=C)c2)c1 (stereo not drawn)
MIC90 (Staphylococcus aureus [1]): > 256 µg/mL
MIC90 (Escherichia coli): > 256 µg/mL

NC[C@H]1O[C@H](O[C@H]2[C@H](O)[C@@H](O[C@H]3O[C@H](CO)[C@@H](O)[C@H](N)[C@H]3O)[C@H](N)C[C@@H]2N)[C@H](N)C[C@@H]1O [TOBRAMYCIN]
MIC (Klebsiella pneumoniae [5]): 0.25 µg/mL (≈ 0.535 µM)
MIC (Pseudomonas aeruginosa [8]): 0.25 µg/mL (≈ 0.535 µM)
MIC (Klebsiella pneumoniae [11]): 1 µg/mL (≈ 2.14 µM)
MIC (Escherichia coli): 0.25 µg/mL (≈ 0.535 µM)
MIC (Pseudomonas aeruginosa [12]): 0.5 µg/mL (≈ 1.07 µM)
MIC (Klebsiella pneumoniae [13]): 4 µg/mL (≈ 8.56 µM)
MIC (Pseudomonas aeruginosa [17]): 2 µg/mL (≈ 4.28 µM)

C=CCc1cc(CN2CCCC(C)C2)c(O)c(-c2ccc(O)c(CC=C)c2)c1 (stereo not drawn)
MIC90 (Staphylococcus aureus [1]): > 256 µg/mL
MIC90 (Escherichia coli): > 256 µg/mL

C=CCc1cc(CN2CCC(NC(=O)OC(C)(C)C)CC2)c(O)c(-c2ccc(O)c(CC=C)c2)c1
MIC90 (Staphylococcus aureus [1]): > 256 µg/mL
MIC90 (Escherichia coli): > 256 µg/mL

C=CCc1cc(CN2CCC(N3CCNCC3)CC2)c(O)c(-c2ccc(O)c(CC=C)c2)c1
MIC90 (Staphylococcus aureus [1]): 32 µg/mL (≈ 71.5 µM)
MIC90 (Escherichia coli): > 256 µg/mL

C=CCc1cc(CN2CCN(C(=O)OC(C)(C)C)CC2)c(O)c(-c2ccc(O)c(CC=C)c2)c1
MIC90 (Staphylococcus aureus [1]): > 256 µg/mL
MIC90 (Escherichia coli): > 256 µg/mL

C=CCc1cc(CN2CCC(N3CCC(N)CC3)CC2)c(O)c(-c2ccc(O)c(CC=C)c2)c1
MIC (Staphylococcus aureus [2]): 8 µg/mL (≈ 17.3 µM)
Activity (Staphylococcus aureus [18]): 4 - 5 log10CFU/ml
MIC [3]: 8 µg/mL (≈ 17.3 µM)
MIC (Enterococcus faecalis [4]): 8 µg/mL (≈ 17.3 µM)
MIC (Klebsiella pneumoniae [5]): 8 µg/mL (≈ 17.3 µM)
Activity (Staphylococcus aureus [19]): Dose-dependent effect
MIC (Staphylococcus aureus [6]): 8 µg/mL (≈ 17.3 µM)
MIC (Staphylococcus aureus [1]): 8 µg/mL (≈ 17.3 µM)
MIC90 (Staphylococcus aureus [1]): 8 µg/mL (≈ 17.3 µM)
MIC [7]: 8 µg/mL (≈ 17.3 µM)
MIC (Streptococcus pyogenes): 8 µg/mL (≈ 17.3 µM)
MIC (Pseudomonas aeruginosa [8]): 64 µg/mL (≈ 139 µM)
MIC (Staphylococcus aureus [9]): 8 µg/mL (≈ 17.3 µM)
MIC (Staphylococcus aureus [10]): 8 µg/mL (≈ 17.3 µM)
MIC (Klebsiella pneumoniae [11]): 8 µg/mL (≈ 17.3 µM)
MIC (Escherichia coli): 16 µg/mL (≈ 34.7 µM)
MIC90 (Escherichia coli): 16 µg/mL (≈ 34.7 µM)
MIC (Pseudomonas aeruginosa [12]): 64 µg/mL (≈ 139 µM)
Activity (Staphylococcus aureus [20]): Active
MIC (Klebsiella pneumoniae [13]): 64 µg/mL (≈ 139 µM)
Activity (Staphylococcus aureus [21]): Active
Activity (Staphylococcus aureus [22]): Dose-dependent effect
Activity (Staphylococcus aureus [23]): 0 log10CFU/ml
MIC (Enterococcus faecalis [15]): 8 µg/mL (≈ 17.3 µM)
MIC (Staphylococcus aureus [16]): 8 µg/mL (≈ 17.3 µM)
MIC (Pseudomonas aeruginosa [17]): 64 µg/mL (≈ 139 µM)

C=CCc1cc(CN2CCC(N3CCCC(N)C3)CC2)c(O)c(-c2ccc(O)c(CC=C)c2)c1 (stereo not drawn)
MIC (Staphylococcus aureus [2]): 16 µg/mL (≈ 34.7 µM)
MIC [3]: 16 µg/mL (≈ 34.7 µM)
MIC (Enterococcus faecalis [4]): 16 µg/mL (≈ 34.7 µM)
MIC (Klebsiella pneumoniae [5]): 32 µg/mL (≈ 69.3 µM)
MIC (Staphylococcus aureus [6]): 16 µg/mL (≈ 34.7 µM)
MIC (Staphylococcus aureus [1]): 16 µg/mL (≈ 34.7 µM)
MIC90 (Staphylococcus aureus [1]): 16 µg/mL (≈ 34.7 µM)
MIC [7]: 16 µg/mL (≈ 34.7 µM)
MIC (Streptococcus pyogenes): 32 µg/mL (≈ 69.3 µM)
MIC (Pseudomonas aeruginosa [8]): > 256 µg/mL
MIC (Staphylococcus aureus [9]): 16 µg/mL (≈ 34.7 µM)
MIC (Staphylococcus aureus [10]): 16 µg/mL (≈ 34.7 µM)
MIC (Klebsiella pneumoniae [11]): 16 µg/mL (≈ 34.7 µM)
MIC (Escherichia coli): 128 µg/mL (≈ 277 µM)
MIC90 (Escherichia coli): 128 µg/mL (≈ 277 µM)
MIC (Pseudomonas aeruginosa [12]): > 256 µg/mL
MIC (Klebsiella pneumoniae [13]): > 256 µg/mL
MIC (Enterococcus faecalis [15]): 16 µg/mL (≈ 34.7 µM)
MIC (Staphylococcus aureus [16]): 16 µg/mL (≈ 34.7 µM)
MIC (Pseudomonas aeruginosa [17]): 64 µg/mL (≈ 139 µM)

C=CCc1cc(CN2CCN(CCOC)CC2)c(O)c(-c2ccc(O)c(CC=C)c2)c1
MIC90 (Staphylococcus aureus [1]): > 256 µg/mL
MIC90 (Escherichia coli): > 256 µg/mL

CN[C@H](CC(C)C)C(=O)N[C@H]1C(=O)N[C@@H](CC(N)=O)C(=O)N[C@H]2C(=O)N[C@H]3C(=O)N[C@H](C(=O)N[C@H](C(=O)O)c4cc(O)cc(O)c4-c4cc3ccc4O)[C@H](O)c3ccc(c(Cl)c3)Oc3cc2cc(c3O[C@@H]2O[C@H](CO)[C@@H](O)[C@H](O)[C@H]2O[C@H]2C[C@](C)(N)[C@H](O)[C@H](C)O2)Oc2ccc(cc2Cl)[C@H]1O [VANCOMYCIN]
Activity (Staphylococcus aureus [19]): Active
MIC90 (Staphylococcus aureus [1]): 1 µg/mL (≈ 0.69 µM)
MIC90 (Escherichia coli): > 256 µg/mL
Activity (Staphylococcus aureus [20]): Active
Activity (Staphylococcus aureus [21]): Active
Activity (Staphylococcus aureus [22]): Active

CC(=O)NC[C@H]1CN(c2ccc(N3CCOCC3)c(F)c2)C(=O)O1 [LINEZOLID]
MIC [3]: 2 µg/mL (≈ 5.93 µM)
Activity (Staphylococcus aureus [19]): Active
MIC90 (Staphylococcus aureus [1]): 2 µg/mL (≈ 5.93 µM)
MIC [7]: 2 µg/mL (≈ 5.93 µM)
MIC (Streptococcus pyogenes): 0.5 µg/mL (≈ 1.48 µM)
MIC90 (Escherichia coli): > 256 µg/mL
Activity (Staphylococcus aureus [22]): Active

C=CCc1cc(CO)c(O)c(-c2ccc(O)c(CC=C)c2)c1
MIC90 (Staphylococcus aureus [1]): 32 µg/mL (≈ 108 µM)
MIC90 (Escherichia coli): > 256 µg/mL

C=CCc1cc(CN2CCN(C(C)=O)CC2)c(O)c(-c2ccc(O)c(CC=C)c2)c1
MIC90 (Staphylococcus aureus [1]): > 256 µg/mL
MIC90 (Escherichia coli): > 256 µg/mL
